Results reported in patent US10757941B2, “Microbiocidal oxadiazole derivatives” (SYNGENTA PARTICIPATIONS AG, priority 2016, dated 2020).

Legend:
[1] = test system: Puccinia recondita f. Sp. Tritici; assay: Fungicidal activity against Puccinia recondita f. sp. tritici / wheat / leaf disc preventative (brown rust); format: in vivo; settings: foliar, 200 ppm in the applied formulation, wheat leaf segments cv. Kanzler, preventative (inoculated 1 day after application), assessed 7 to 9 days after application, compared to untreated, read-out: disease control
Procedure, shortened: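 Wheat cv. Kanzler leaf segments on agar sprayed with formulated compound diluted in water; spore inoculation 1 day after application. Incubated at 19° C., 75% rh, 12 h light/12 h dark; percent disease control versus untreated scored 7 to 9 days after application.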

[2] = test system: Puccinia recondita f. Sp. Tritici; assay: Fungicidal activity against Puccinia recondita f. sp. tritici / wheat / leaf disc curative (brown rust); format: in vivo; settings: foliar, 200 ppm in the applied formulation, wheat leaf segments cv. Kanzler, curative (applied 1 day after inoculation), assessed 6 to 8 days after application, compared to untreated, read-out: disease control
Experimental: Leaf disks or leaf segments of various plant species are cut from plants grown in a greenhouse. The cut leaf disks or segments are placed in multiwell plates (24-well format) onto water agar. The leaf disks are sprayed with a test solution before (preventative) or after (curative) inoculation. Compounds to be tested are prepared as DMSO solutions (max. 10 mg/ml) which are diluted to the appropriate concentration with 0.025% Tween20 just before spraying. The inoculated leaf disks or segments are incubated under defined conditions (temperature, relative humidity, light, etc.) according to the respective test system. A single evaluation of disease level is carried out 3 to 14 days after inoculation, depending on the pathosystem. Percent disease control relative to the untreated check leaf disks or segments is then calculated. Example 2: Fungicidal Activity Against Puccinia recondita f. Sp. Tritici/Wheat/Leaf Disc Curative (Brown Rust) Wheat leaf segments cv. Kanzler are placed on agar in multiwell plates (24-well format). The leaf segments are then inoculated with a spore suspension of the fungus. Plates were stored in darkness at 19° C. and 75% relative humidity. The formulated test compound diluted in water was applied 1 day after inoculation. The leaf segments were incubated at 19° C. and 75% relative humidity under a light regime of 12 hours light/12 hours darkness in a climate cabinet and the activity of a compound was assessed as percent disease control compared to untreated when an appropriate level of disease damage appears in untreated check leaf segments (6 to 8 days after application). The following compounds at 200 ppm in the applied formulation give at least 80% disease control in this test when compared to untreated control leaf disks under the same conditions, which show extensive disease development.

Phakopsora pachyrhizi = assay: Fungicidal activity against Phakopsora pachyrhizi / soybean / leaf disc preventative (Asian soybean rust); format: in vivo; settings: foliar, 200 ppm in the applied formulation, soybean leaf disks, preventative (inoculated one day after application), assessed 12 to 14 days after application, compared to untreated, read-out: disease control
Procedure, shortened: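 Preventative test: soybean leaf discs on water agar sprayed with compound diluted in water, inoculated with spore suspension on lower surface one day later. Incubated 24-36 h dark at 20° C., 75% rh, then 12 h light/day; percent disease control versus untreated assessed 12 to 14 days after application.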

[3] = test system: Glomerella lagenarium (Colletotrichum lagenarium); assay: Fungicidal activity against Glomerella lagenarium (Colletotrichum lagenarium) liquid culture / cucumber / preventative (anthracnose); format: cell-based; settings: Colletotrichum orbiculare; 20 ppm in the applied formulation; liquid culture in PDB, 24° C.; inhibition of growth measured photometrically 3 to 4 days after application; compared to untreated; read-out: disease control
Procedure, shortened: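 Conidia of C. lagenarium from cryogenic storage mixed into potato dextrose broth and added to test compound (DMSO solution) in microtiter plates; incubated at 24° C. Growth inhibition read photometrically 3 to 4 days after application, as percent activity versus untreated check.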

Uromyces viciae-fabael = assay: Fungicidal activity against Uromyces viciae-fabae / field bean / leaf disc preventative (faba-bean rust); format: in vivo; settings: foliar, 288 h, 100 ppm in the applied formulation, field bean leaf discs, preventative (inoculated two hours after application), assessed 12 days after application, compared to untreated, read-out: disease control
Procedure, shortened: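 Field bean leaf discs on water agar treated with compound in acetone plus spreader, then inoculated 2 h later by spraying U. viciae-fabae spores on the lower surface. Incubation at 22° C, 18 h day, 70% RH; percent disease control versus untreated scored 12 days after application.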

O=C(NC1CCC1)c1ccc(-c2noc(C(F)(F)F)n2)c(F)c1 [Compound 1.39, N-cyclobutyl-3-fluoro-4-[5-(trifluoromethyl)-1,2,4-oxadiazol-3-yl]benzamide]
≥ 80%: pest or weed control at 200 ppm [1] | pest or weed control at 200 ppm [2] | pest or weed control at 200 ppm (Phakopsora pachyrhizi) | inhibition of growth at 20 ppm [3] | pest or weed control at 100 ppm (Uromyces viciae-fabael)

CCOCC1(NC(=O)c2ccc(-c3noc(C(F)(F)F)n3)c(F)c2)CC1 [Compound 1.40, N-[1-(ethoxy-methyl)cyclopropyl]-3-fluoro-4-[5-(trifluoromethyl)-1,2,4-oxadiazol-3-yl]benzamide]
≥ 80%: pest or weed control at 200 ppm [1] | pest or weed control at 200 ppm [2] | pest or weed control at 200 ppm (Phakopsora pachyrhizi) | inhibition of growth at 20 ppm [3] | pest or weed control at 100 ppm (Uromyces viciae-fabael)
